Experimental findings from ChEMBL document CHEMBL1201862, “PubChem BioAssay data set” (2004) are described below.

Molecules are shown by their SMILES.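 Step 1: Grow cells in 96-well plates. Step 2: Expose to compound for 48 hours at 5 concentrations. Step 3: Interpolate endpoints linearly; if unreached, use highest concentration. At the GI50, growth is halved.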 The source made the active and inactive calls. Rule as the data show it: active = GI50 up to about 1.1 µM and inactive = higher. Where only a bound is given, the exact number is not on record here.

Some test systems named below: NCI-H460; SF-268; NCI-H23; HCT-15; MDA-N; Hs-578T; COLO 205; K562; Malme-3M; MDA-MB-435; MDA-MB-231; A498; MCF7; CAKI-1; OVCAR-5; IGROV-1; LOX IMVI; A549; HL-60; SK-MEL-5.
Assay in all cases: inhibition of tumour cell growth, NCI panel, 48 h

As to `C#CCn1c(=O)c(I)cn(/C(=C/C(=O)OCC)C(=O)OCC)c1=O`, the GI50 in the experiment with NCI-H460 is 23.4 µM (inactive); in the experiment on SF-268, 9.44 µM (inactive); with NCI-H23 it was 15.3 µM (inactive); with HCT-15, 2.74 µM; in the experiment on MDA-N it was 3.37 µM (inactive); in the experiment with Hs-578T it was 15 µM (inactive). Besides, the GI50 in the experiment on COLO 205 is 0.667 µM (active); in the experiment with K562, 0.659 µM (active); in the experiment with Malme-3M it was 1.52 µM (inactive); with MDA-MB-435, 7.6 µM (inactive); in the experiment on MDA-MB-231, 15.2 µM (inactive); in the experiment with A498 it was 19.1 µM (inactive). The GI50 is 2.12 µM (inactive) with MCF7; 1.86 µM (inactive) in the experiment on CAKI-1; 16.2 µM (inactive) with OVCAR-5; 15.7 µM (inactive) with IGROV-1; 4.95 µM (inactive) with LOX IMVI; 18 µM (inactive) in the experiment on A549. Further, in the experiment with HL-60, the GI50 was 1.64 µM (inactive).
Turning to `NCCCNC1(c2cc3ccccc3s2)CCCCC1`, the GI50 in the experiment with SK-MEL-5 was 1.82 µM (inactive); in the experiment on NCI-H460, 1.94 µM (inactive); in the experiment on SF-268, 9.93 µM (inactive); in the experiment with NCI-H23, 15.7 µM (inactive); with HCT-15, 4.49 µM; in the experiment on MDA-N, 1.78 µM (inactive). Also, the GI50 in the experiment with Hs-578T is 11.9 µM (inactive); in the experiment on COLO 205, 1.84 µM (inactive); in the experiment with K562, 1.85 µM (inactive); in the experiment with Malme-3M, 1.88 µM (inactive); with MDA-MB-435, 1.94 µM (inactive); in the experiment on MDA-MB-231 it was 3.86 µM (inactive). The GI50 in the experiment on A498 is 2.72 µM (inactive); in the experiment with MCF7, 3.69 µM (inactive); in the experiment with CAKI-1, 8.43 µM (inactive); in the experiment on OVCAR-5, 13 µM (inactive); in the experiment with IGROV-1 it was 10.6 µM (inactive); in the experiment on LOX IMVI it was 2.31 µM (inactive). The GI50 with A549 is 7.1 µM (inactive); with HL-60, 2.64 µM (inactive).
Consider `O=C1c2ccccc2C2=Cc3ccccc3C(O)N12` (centres undefined), for which the GI50 in the experiment on SK-MEL-5 is > 100 µM (inactive); in the experiment on NCI-H460 it was > 100 µM (inactive); in the experiment on SF-268 it was > 100 µM (inactive); in the experiment with NCI-H23 it was > 100 µM (inactive); in the experiment on HCT-15, greater than 100 µM; in the experiment with MDA-N it was > 100 µM (inactive). The GI50 in the experiment with Hs-578T is 68.4 µM (inactive); in the experiment on COLO 205, > 100 µM (inactive); in the experiment with K562, 36.1 µM (inactive); in the experiment on Malme-3M it was > 100 µM (inactive); in the experiment on MDA-MB-435, > 100 µM (inactive); with MDA-MB-231, > 100 µM (inactive). In addition, the GI50 in the experiment with A498 was > 100 µM (inactive); with MCF7, > 100 µM (inactive); with CAKI-1, 22.7 µM (inactive); in the experiment on OVCAR-5, > 100 µM (inactive); in the experiment on IGROV-1, > 100 µM (inactive); in the experiment with LOX IMVI, 38.6 µM (inactive). Also, the GI50 was > 100 µM (inactive) in the experiment on A549 and 26.2 µM (inactive) in the experiment on HL-60.
Take `C1COCCN1.S=C(S)N1CCOCC1`: the GI50 in the experiment on SK-MEL-5 was 7.59 µM (inactive); in the experiment on NCI-H460 it was 5.87 µM (inactive); with SF-268, 9.68 µM (inactive); in the experiment with NCI-H23 it was 2.43 µM (inactive); in the experiment on HCT-15, 6.7 µM; in the experiment with MDA-N, 94 µM (inactive). The GI50 is > 100 µM (inactive) with Hs-578T; 0.661 µM (active) with COLO 205; 1.46 µM (inactive) in the experiment with K562; 28.4 µM (inactive) in the experiment on Malme-3M; > 100 µM (inactive) with MDA-MB-435; > 100 µM (inactive) in the experiment on MDA-MB-231. The GI50 was 24.9 µM (inactive) in the experiment with A498; 29.4 µM (inactive) with MCF7; 5.51 µM (inactive) with CAKI-1; 12.5 µM (inactive) in the experiment with OVCAR-5; 6.76 µM (inactive) in the experiment on IGROV-1; 18.3 µM (inactive) in the experiment on LOX IMVI. For the same compound, the GI50 was 8.24 µM (inactive) with A549 and 1.12 µM (inactive) in the experiment on HL-60.
